This note sets out measurements from patent US20050277622A1, “1-Calcium phosphate-uracil and method for preparing thereof” (priority 2004, published 2005).

Holding throughout (format): in vivo, human
Assay [1] in a line: Clinical Case 1: continued bad cough not susceptive to antibiotics therapy. As to conditions: person two, oral, 15 mg per day for 5 days. As for the experimental part:
person two, who had been suffering from a continued bad cough for 2 months and not susceptive to antibiotics therapy, was administrated orally with medicament of 1-calcium phosphate-uracil for 5 days, 15 mg per day.

Assay [2] is described as follows: Clinical Case 2: cough, hyperplasia of prostate and constipation. The conditions noted are these: person one, oral, 15 mg per day for 5 days. The method, then:
person one, who had been suffering from cough for about 50 years and hyperplasia of prostate for 7 years and recently relapsed into continued cough for 15 days and constipation, was administrated orally with medicament of 1-calcium phosphate-uracil for 5 days, 15 mg per day.

Assay [3] in a line: Clinical Case 3: cold with fever of 39° C. The conditions noted are these: person, oral, 15 mg per day for 1 day. An excerpt: Therapeutic effect: fever was allayed after 1 day and symptom of cough disappeared after 2 days.
The nature of assay [4]: Clinical Case 4: fever of 40.5° C. As to conditions: person, oral, 15 mg one time per day for 1 day. An excerpt:
Therapeutic effect: fever was allayed after 1 day and symptom of cough disappeared after 3 days.

Assay [5] has as its system influenza. As to the kind of experiment: Clinical Case 5: administration in advance during influenza period. As to conditions: 2 of 8 persons in a dormitory, oral in advance, 15 mg one time per day for 1 day; other 6 persons all infected.
Assay [6] concerns influenza. Kind of assay: Clinical Case 5: treatment of persons infected with influenza. The conditions noted are these: 2 infected persons, oral, 15 mg one time per day for 3 days. As for the experimental part:
One day after infection, 2 of 6 infected persons were administrated orally with medicament of 1-calcium phosphate-uracil for 3 day, one time per day, 15 mg each time. Therapeutic effect: fever was allayed after 1 day and symptom of cough faded away after 3 days. Instead of being administrated with medicament of 1-calcium phosphate-uracil, the other 4 infected persons were treated according to conventional therapeutic regimen, recovered until after 15 days.

The nature of assay [7]: Clinical Case 6: constipation for about 10 years. The conditions noted are these: 4 persons, 1-2 times a week on conventional drugs; oral, 12 mg˜15 mg one time per day for 1 day. The text has this: 4 persons, who had suffered from constipation for about 10 years, defecated 1-2 times a week when administrated with conventional drugs.
The nature of assay [8]: Clinical Case 7: frequent premature beat, cardiac distress and constipation. As to conditions: person, oral. The method, then:
A person, who had suffered from frequent premature beat, cardiac distress for 3 years and constipation for 5 years, was administrated orally with medicament of 1-calcium phosphate-uracil for 20 days, 13 mg per day.
The therapeutic effect: the symptoms of palpitation premature beat and cardiac distress disappeared completely after 20 days from administration and constipation symptom disappeared after 1 day from administration.

Assay [9] in a line: Clinical Case 8: sleeping and stamina. The conditions noted are these: 20 persons aging 12˜70 years; 15 mg per day for one day. An excerpt: The medicament can ameliorate sleeping and supplement stamina.
Assay [10] is described as follows: Clinical Case 9: liver cancer in a most serious stage. The conditions noted are these: person; oral, 15 mg one time per day for 10 months. The method, then:
A person, who suffered liver cancer in a most serious stage, was administrated orally with medicament of 1-calcium phosphate-uracil for 10 months, one time per day, 15 mg each time.
Therapeutic effect: liver tumor was disappeared upon the examination of CT.

Take 1-calcium phosphate-uracil: the symptom of cough result in [1] (cough for 2 months) is “cured completely”. The “symptom of incontinence of urine” value in [1] was “disappeared”. Besides, in [2] (continued cough for 15 days), the cough symptom entry is reported as “alleviated”. The frequency of nocturia result in assay [2] (hyperplasia of prostate for 7 years) is “decreased significantly”. The constipation result in assay [2] was “disappeared”. Moreover, the “fever was allayed after” value (in [3] (fever of 39° C.); in [4] (fever of 40.5° C.); in the assay on influenza [6] (one day after infection)) was 1 days each time. Further, the “symptom of cough disappeared after” value was 2 days in [3] and 3 days in assay [4]. Also, the infection with influenza result in the assay on influenza [5] is reported as “not infected with influenza”. Further, in the assay on influenza [6] (conventional regimen recovered after 15 days), the “symptom of cough faded away after” value is 3 days. The defecation entry in [7] is “defecated smoothly, once a day”. The “constipation symptom disappeared after” value in assay [8] (constipation for 5 years, 13 mg per day) came to 1 days. In addition, the “symptoms of palpitation premature beat and cardiac distress disappeared completely after” value in assay [8] (13 mg per day for 20 days) came to 20 days. Also, in assay [9], the “sleeping on the same day” value was “good sleeping”. The “stamina in the next day” value in [9] is “full of vigor”. For the same substance, the “liver tumor upon the examination of CT” value in [10] was “disappeared”.
